# According to PMC9785202, “Changes in Disposition of Ezetimibe and Its Active Metabolites Induced by Impaired Hepatic Function: The Influence of Enzyme and Transporter Activities” (Pharmaceutics, 2022):
# Read-outs that look alike come from different tables or passages of the source.
# Experiments:
# [1] = set-up: method as in earlier work; settings: cited from earlier work
# OATP2B1 = target: T1, OATP2B1 (Homo sapiens, UniProt O94956); assay: Uptake of EZE-Ph into OATP2B1-transfected HEK293 cells; type: in vitro ADME
# T1 construct: host or cells: HEK293
# T1 sequence (O94956 1-709): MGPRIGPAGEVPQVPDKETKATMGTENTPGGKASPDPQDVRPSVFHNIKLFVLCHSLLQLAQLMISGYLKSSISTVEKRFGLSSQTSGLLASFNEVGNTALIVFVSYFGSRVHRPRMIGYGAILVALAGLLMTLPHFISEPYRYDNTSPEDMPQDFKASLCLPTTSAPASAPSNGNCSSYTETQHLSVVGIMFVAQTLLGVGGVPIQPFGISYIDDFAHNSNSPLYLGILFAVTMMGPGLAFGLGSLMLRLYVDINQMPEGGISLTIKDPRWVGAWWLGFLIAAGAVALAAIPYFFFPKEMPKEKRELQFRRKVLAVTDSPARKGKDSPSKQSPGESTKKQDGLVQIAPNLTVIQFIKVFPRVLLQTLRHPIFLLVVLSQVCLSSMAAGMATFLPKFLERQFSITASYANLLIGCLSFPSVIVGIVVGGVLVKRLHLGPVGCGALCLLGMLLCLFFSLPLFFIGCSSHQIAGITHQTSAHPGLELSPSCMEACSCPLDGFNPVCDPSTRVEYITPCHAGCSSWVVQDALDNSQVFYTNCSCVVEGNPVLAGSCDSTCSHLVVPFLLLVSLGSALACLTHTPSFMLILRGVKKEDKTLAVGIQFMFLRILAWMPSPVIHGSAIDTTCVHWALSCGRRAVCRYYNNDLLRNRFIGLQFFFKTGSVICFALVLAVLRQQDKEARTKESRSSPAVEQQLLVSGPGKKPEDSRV
# Procedure: The kinetic parameters and the half inhibitory concentration (IC50) were calculated using GraphPad Prism. […] The intrinsic clearance (CLint) was calculated as CLint = Vmax/Km.
"uptake in transporter-transfected cells relative to mock-transfected cells (OATP2B1; 10 μM EZE-Ph, OATP2B1 HEK293)","CLint (OATP2B1; OATP2B1 HEK293, CLint = Vmax/Km)","Kinetic Model (OATP2B1; OATP2B1 HEK293, uptake time 5 min)",SMILES,"plasma exposure, fold higher than in healthy subjects ([1]; mild CLD patients)","plasma exposure, fold higher than in healthy subjects ([1]; moderate CLD patients)","plasma exposure, fold higher than in healthy subjects ([1]; severe CLD patients)"
–,–,–,"O=C1[C@H](CC[C@H](O)c2ccc(F)cc2)[C@@H](c2ccc(O)cc2)N1c1ccc(F)cc1 [EZE, 1-(4-fluorophenyl)-3(R)-[3-(4-fluorophenyl)-3(S)-hydroxypropyl]-4(S)-(4-hydroxyphenyl)-2-azetidinone, reference compound]",1.4 fold,5.8 fold,4.8 fold
3.7 times,0.56 μL/min/mg Protein,Michaelis–Menten,"O=C(O)[C@H]1O[C@@H](Oc2ccc([C@@H]3[C@@H](CC[C@H](O)c4ccc(F)cc4)C(=O)N3c3ccc(F)cc3)cc2)[C@H](O)[C@@H](O)[C@@H]1O [EZE-Ph, ezetimibe phenoxy β-D-glucuronide]",–,–,–
